pIC50: −log10 of the molar value.
Target: c-kit (Homo sapiens, UniProt P10721)
Test: c-kit assays of Examples 40 and 41 (AlphaScreen kinase assays at 10 and 100 μM ATP, 33P-ATP filter assay, M-07e SCF-stimulated proliferation and phosphorylation)

c-kit, sequence (P10721 with tags, fused parts or gaps): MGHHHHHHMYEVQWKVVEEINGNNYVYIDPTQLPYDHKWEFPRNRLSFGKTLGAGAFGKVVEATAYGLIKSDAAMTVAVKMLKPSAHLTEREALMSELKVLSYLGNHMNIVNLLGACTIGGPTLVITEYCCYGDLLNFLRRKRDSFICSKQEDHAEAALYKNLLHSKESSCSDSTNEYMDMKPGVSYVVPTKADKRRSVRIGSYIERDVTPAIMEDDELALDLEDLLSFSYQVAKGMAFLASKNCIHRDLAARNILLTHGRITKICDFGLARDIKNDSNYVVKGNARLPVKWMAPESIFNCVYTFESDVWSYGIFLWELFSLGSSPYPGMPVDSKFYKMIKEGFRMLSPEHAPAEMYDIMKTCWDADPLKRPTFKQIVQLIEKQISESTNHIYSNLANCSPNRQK

pIC50, > 6.00:
O=C(Nc1ccc(Cc2c[nH]c3ncccc23)cn1)c1ccc(F)c(C(F)(F)F)c1 [P-0112, 4-Fluoro-N-[5-(1H-pyrrolo[2,3-b]pyridin-3-ylmethyl)-pyridin-2-yl]-3-trifluoromethyl-benzamide]
O=C(Nc1ccc(Cc2c[nH]c3ncccc23)cn1)c1cccc(OC(F)(F)F)c1 [P-0113, N-[5-(1H-Pyrrolo[2,3-b]pyridin-3-ylmethyl)-pyridin-2-yl]-3-trifluoromethoxy-benzamide]
O=C(Nc1ccc(Cc2c[nH]c3ncccc23)cn1)c1cccc(C(F)(F)F)c1 [P-0114, N-[5-(1H-Pyrrolo[2,3-b]pyridin-3-ylmethyl)-pyridin-2-yl]-3-trifluoromethyl-benzamide]
O=C(Nc1ccc(Cc2c[nH]c3ncccc23)cn1)c1ccc(F)c(Cl)c1 [P-0115, 3-Chloro-4-fluoro-N-[5-(1H-pyrrolo[2,3-b]pyridin-3-ylmethyl)-pyridin-2-yl]-benzamide]
O=C(Nc1ccc(Cc2c[nH]c3ncccc23)cn1)c1ccc(F)c(F)c1 [P-0116, 3,4-Difluoro-N-[5-(1H-pyrrolo[2,3-b]pyridin-3-ylmethyl)-pyridin-2-yl]-benzamide]
Cc1ccc(F)cc1C(=O)Nc1ccc(Cc2c[nH]c3ncccc23)cn1 [P-0118, 5-Fluoro-2-methyl-N-[5-(1H-pyrrolo[2,3-b]pyridin-3-ylmethyl)-pyridin-2-yl]-benzamide]
COc1cccc(C(=O)Nc2ccc(Cc3c[nH]c4ncccc34)cn2)c1 [P-0120, 3-Methoxy-N-[5-(1H-pyrrolo[2,3-b]pyridin-3-ylmethyl)-pyridin-2-yl]-benzamide]
O=C(Nc1ccc(Cc2c[nH]c3ncccc23)cn1)c1cccc(F)c1 [P-0121, 3-Fluoro-N-[5-(1H-pyrrolo[2,3-b]pyridin-3-ylmethyl)-pyridin-2-yl]-benzamide]
Cc1cccc(C(=O)Nc2ccc(Cc3c[nH]c4ncccc34)cn2)c1 [P-0122, 3-Methyl-N-[5-(1H-pyrrolo[2,3-b]pyridin-3-ylmethyl)-pyridin-2-yl]-benzamide]
O=C(Nc1ccc(Cc2c[nH]c3ncccc23)cn1)c1ccnc(Cl)c1 [P-0123, 2-Chloro-N-[5-(1H-pyrrolo[2,3-b]pyridin-3-ylmethyl)-pyridin-2-yl]-isonicotinamide]
C[C@@H](Nc1ccc(Cc2c[nH]c3ncccc23)cn1)c1ccccc1 [P-0125, ((R)-1-Phenyl-ethyl)-[5-(1H-pyrrolo[2,3-b]pyridin-3-ylmethyl)-pyridin-2-yl]-amine]
c1cc(CNc2ccc(Cc3c[nH]c4ncccc34)cn2)cc(N2CCOCC2)c1 [P-0126, (3-Morpholin-4-yl-benzyl)-[5-(1H-pyrrolo[2,3-b]pyridin-3-ylmethyl)-pyridin-2-yl]-amine]
CC(Nc1ccc(Cc2c[nH]c3ncccc23)cn1)c1ccccc1F (centres unmarked) [P-0127, [1-(2-Fluoro-phenyl)-ethyl]-[5-(1H-pyrrolo[2,3-b]pyridin-3-ylmethyl)-pyridin-2-yl]-amine]
Fc1cccc(CCNc2ccc(Cc3c[nH]c4ncccc34)cn2)c1 [P-0128, [2-(3-Fluoro-phenyl)-ethyl]-[5-(1H-pyrrolo[2,3-b]pyridin-3-ylmethyl)-pyridin-2-yl]-amine]
Clc1cccc(CNc2ccc(Cc3c[nH]c4ncccc34)cn2)c1 [P-0129, (3-chloro-benzyl)-[5-(1H-pyrrolo[2,3-b]pyridin-3-ylmethyl)-pyridin-2-yl]-amine]
Cc1cc(CNc2ccc(Cc3c[nH]c4ncccc34)cn2)nn1C [P-0131, (1,5-Dimethyl-1H-pyrazol-3-ylmethyl)-[5-(1H-pyrrolo[2,3-b]pyridin-3-ylmethyl)-pyridin-2-yl]-amine]
Fc1nc(NCc2ccc(Cl)cc2)ccc1Cc1c[nH]c2ncc(Cl)cc12 [P-0132, (4-Chloro-benzyl)-[5-(5-chloro-1H-pyrrolo[2,3-b]pyridin-3-ylmethyl)-6-fluoro-pyridin-2-yl]-amine]
Cc1nn(Cc2ccc(C(F)(F)F)o2)c(C)c1Cc1c[nH]c2ncccc12 [P-0138, 3-[3,5-Dimethyl-1-(5-trifluoromethyl-furan-2-ylmethyl)-1H-pyrazol-4-ylmethyl]-1H-pyrrolo[2,3-b]pyridine]
Cc1nc(-c2ccc(C(F)(F)F)cc2)sc1Cn1nc(C)c(Cc2c[nH]c3ncccc23)c1C [P-0143, 3-{3,5-Dimethyl-1-[4-methyl-2-(4-trifluoromethyl-phenyl)-thiazol-5-ylmethyl]-1H-pyrazol-4-ylmethyl}-1H-pyrrolo[2,3-b]pyridine]
Cc1nc(-c2ccccc2)sc1Cn1nc(C)c(Cc2c[nH]c3ncccc23)c1C [P-0144, 3-[3,5-Dimethyl-1-(4-methyl-2-phenyl-thiazol-5-ylmethyl)-1H-pyrazol-4-ylmethyl]-1H-pyrrolo[2,3-b]pyridine]
COc1ccccc1CNC(=O)n1nc(C)c(Cc2c[nH]c3ncccc23)c1C [P-0145, 3,5-Dimethyl-4-(1H-pyrrolo[2,3-b]pyridin-3-ylmethyl)-pyrazole-1-carboxylic acid 2-methoxy-benzylamide]
Cc1nn(C(=O)NCCc2ccccc2F)c(C)c1Cc1c[nH]c2ncccc12 [P-0148, 3,5-Dimethyl-4-(1H-pyrrolo[2,3-b]pyridin-3-ylmethyl)-pyrazole-1-carboxylic acid [2-(2-fluoro-phenyl)-ethyl]-amide]
Fc1ccc(Cc2c[nH]c3ncccc23)c(F)n1 [P-0154, 3-(2,6-difluoro-pyridin-3-ylmethyl)-1H-pyrrolo[2,3-b]pyridine]
Cc1nn(C(=O)NCc2ccc(Cl)cc2)c(C)c1Cc1c[nH]c2ncc(Cl)cc12 [P-0159, 4-(5-Chloro-1H-pyrrolo[2,3-b]pyridin-3-ylmethyl)-3,5-dimethyl-pyrazole-1-carboxylic acid 4-chloro-benzylamide]
Clc1ccc(CNc2ccc(Cc3c[nH]c4ncccc34)c(Cl)n2)cc1 [P-0161, (4-Chloro-benzyl)-[6-chloro-5-(1H-pyrrolo[2,3-b]pyridin-3-ylmethyl)-pyridin-2-yl]-amine]
Cc1nc(NCc2ccc(F)cc2)sc1Cc1c[nH]c2ncccc12 [P-0163, (4-Fluoro-benzyl)-[4-methyl-5-(1H-pyrrolo[2,3-b]pyridin-3-ylmethyl)-thiazol-2-yl]-amine]
Cn1nc(NCc2ccc(F)cc2)cc1Cc1c[nH]c2ncc(Cl)cc12 [P-0170, [5-(5-Chloro-1H-pyrrolo[2,3-b]pyridin-3-ylmethyl)-1-methyl-1H-pyrazol-3-yl]-(4-fluoro-benzyl)-amine]
FC(F)(F)c1ccc(CNc2nc(Cl)c(Cc3c[nH]c4ncccc34)s2)cn1 [P-0173, [4-Chloro-5-(1H-pyrrolo[2,3-b]pyridin-3-ylmethyl)-thiazol-2-yl]-(6-trifluoromethyl-pyridin-3-ylmethyl)-amine]
FC(F)(F)c1ccc(CNc2ccc(Cc3c[nH]c4ncccc34)c(Cl)n2)cn1 [P-0174, [6-Chloro-5-(1H-pyrrolo[2,3-b]pyridin-3-ylmethyl)-pyridin-2-yl]-(6-trifluoromethyl-pyridin-3-ylmethyl)-amine]
FC(F)(F)c1ccc(CNc2ccc(Cc3c[nH]c4ncc(Cl)cc34)c(Cl)n2)cn1 [P-0176, [6-Chloro-5-(5-chloro-1H-pyrrolo[2,3-b]pyridin-3-ylmethyl)-pyridin-2-yl]-(6-trifluoromethyl-pyridin-3-ylmethyl)-amine]
FC(F)(F)c1ccc(CNc2ccc(Cc3c[nH]c4ncccc34)cn2)cn1 [P-0182, [5-(1H-Pyrrolo[2,3-b]pyridin-3-ylmethyl)-pyridin-2-yl]-(6-trifluoromethyl-pyridin-3-ylmethyl)-amine]
Fc1nc(NCc2ccc(C(F)(F)F)nc2)ccc1Cc1c[nH]c2ncc(Cl)cc12 [P-0186, [5-(5-Chloro-1H-pyrrolo[2,3-b]pyridin-3-ylmethyl)-6-fluoro-pyridin-2-yl]-(6-trifluoromethyl-pyridin-3-ylmethyl)-amine]
COc1cnc2[nH]cc(Cc3ccc(NCc4ccc(C(F)(F)F)nc4)nc3F)c2c1 [P-0187, [6-Fluoro-5-(5-methoxy-1H-pyrrolo[2,3-b]pyridin-3-ylmethyl)-pyridin-2-yl]-(6-trifluoromethyl-pyridin-3-ylmethyl)-amine]
Fc1nc(NCc2ccc(C(F)(F)F)nc2)ccc1Cc1c[nH]c2ncccc12 [P-0188, [6-Fluoro-5-(1H-pyrrolo[2,3-b]pyridin-3-ylmethyl)-pyridin-2-yl]-(6-trifluoromethyl-pyridin-3-ylmethyl)-amine]
COc1ccc(CNc2nc(Cl)c(Cc3c[nH]c4ncc(Cl)cc34)s2)cn1 [P-0190, [4-Chloro-5-(5-chloro-1H-pyrrolo[2,3-b]pyridin-3-ylmethyl)-thiazol-2-yl]-(6-methoxy-pyridin-3-ylmethyl)-amine]
Clc1cnc2[nH]cc(Cc3sc(NCc4ccccc4)nc3Cl)c2c1 [P-0192, Benzyl-[4-chloro-5-(5-chloro-1H-pyrrolo[2,3-b]pyridin-3-ylmethyl)-thiazol-2-yl]-amine]
COc1cccc(CNc2nc(Cl)c(Cc3c[nH]c4ncc(Cl)cc34)s2)c1 [P-0193, [4-Chloro-5-(5-chloro-1H-pyrrolo[2,3-b]pyridin-3-ylmethyl)-thiazol-2-yl]-(3-methoxy-benzyl)-amine]
Clc1ccc(CNc2nc(Cl)c(Cc3c[nH]c4ncc(Cl)cc34)s2)cc1 [P-0194, (4-Chloro-benzyl)-[4-chloro-5-(5-chloro-1H-pyrrolo[2,3-b]pyridin-3-ylmethyl)-thiazol-2-yl]-amine]
